In patent US20110008465A1, “SESQUITERPENE FORMULATIONS, KITS AND METHODS OF USE THEREOF” (priority 2007, published 2011):
Counter-ions that a name gives are not always drawn.

Tests used:
Test in all cases: Chou and Talalay combination assay with beta-caryophyllene
Conditions in all cases: anticancer drug in combination with beta-caryophyllene; Chou and Talalay CI; 48 h
PC-3 (prostate cancer) = format: cell-based, human
Protocol: (§1) Each solution was prepared fresh and use within 1 hour after preparation.
(§2) Cells were then harvested using trypsine-EDTA. Cells were counted using a hemocytometer and resuspended in DMEM+10% FBS medium.
(§3) Proliferation assay: Increasing concentrations of the anticancer agents and/or beta-caryophyllene were added to 96-well plate (100 μL per well). The final concentration of solvent in the culture medium was maintained below 0.5% (volume/volume) to avoid solvent toxicity.
(§4) The cells were incubated for 48 h at 37° C. and 5% CO2. Cytotoxicity was assessed using the resazurin reduction test (O'Brien et al., 2000). Fluorescence was measured on an automated 96-well Fluoroskan Ascent FI™ plate reader (Labsystems) using excitation and emission wavelengths of 530 nm and 590 nm, respectively. Resazurin was then removed.
(§5) Microplates were frozen at −20° C. overnight. Plates were thawed, a volume of 100 μl of 0.01% SDS in water was added to the wells, the plates were shaken at room temperature for 3 hours and then frozen once more at −20° C. overnight. […] Plates were shaken in the dark (at room temperature) for at least 2 hours, and fluorescence was measured on an automated 96-well Fluoroskan Ascent FI™ plate reader (Labsystems) using excitation and emission wavelengths of 360 nm and 460 nm, respectively.

MCF-7 (breast cancer) = format: cell-based, human
Protocol: as §1, §2, §3, §4, §5
(§6) Results were analyzed using the Chou and Talalay method (9) and may be interpreted as follow: Cl>1 represents an antagonist effect of beta-caryophyllene with the corresponding anticancer agent; Cl=1 represents an additive effect of beta-caryophyllene with the corresponding anticancer agent; Cl<1 represents a potentiating effect of beta-caryophyllene with the corresponding anticancer agent.

[1] = tested on: MDA-MB-231 (breast cancer); format: cell-based, human
Protocol: as §1, §2, §3, §4, §5, §6

A-549 (lung cancer) = format: cell-based, human
Protocol: as §1, §2, §3, §4, §5, §6

PA-1 (ovary cancer) = format: cell-based, human
Protocol: as §1, §2, §3, §4, §5, §6

DLD-1 (colon cancer) = format: cell-based, human
Protocol: as §1, §2, §3, §4, §5, §6

[2] = tested on: U-251 (human glioblastoma); format: cell-based
Protocol: as §1, §2, §3, §4, §5, §6

[3] = tested on: GL-261 (murine glioblastoma); format: cell-based
Protocol: as §1, §2, §3, §4, §5, §6

B16 (murine melanoma) = format: cell-based
Protocol: as §1, §2, §3, §4, §5, §6

MEL-2 (human melanoma) = format: cell-based
Protocol: as §1, §2, §3, §4, §5, §6

COc1cc2ncnc(Nc3cccc(Cl)c3)c2cc1OC [Tyrphostin, Tyrphostin AG 1478]
Potentiating activity PC-3 (PC-3 (prostate cancer)): (2) (High: CI < 0.5 to IC50)
Potentiating activity MCF-7 (MCF-7 (breast cancer)): (1) (Very High: CI equal or below 1 at IC20 and Cl below 0.6 to IC50)
Potentiating activity MDA [1]: (4) (Weak: 0.8 < CI < 1 at IC50)
Potentiating activity A-549 (A-549 (lung cancer)): (3) (Moderate: 0.5 < CI < 0.8 at IC50)
Potentiating activity PA-1 (PA-1 (ovary cancer)): (2) (High: CI < 0.5 to IC50)
Potentiating activity DLD-1 (DLD-1 (colon cancer)): (1) (Very High: CI equal or below 1 at IC20 and Cl below 0.6 to IC50)
Potentiating activity U-251 [2]: (1) (Very High: potentiating or additive activity to IC20 and CI < 0.6 to IC50)
Potentiating activity GL-261 [3]: (3) (Moderate: 0.5 < CI < 0.8 to IC50)
Potentiating activity B16 (B16 (murine melanoma)): (1) (Very High: potentiating or additive activity to IC20 and CI < 0.6 to IC50)
Potentiating activity MEL-2 (MEL-2 (human melanoma)): (1) (Very High: potentiating or additive activity to IC20 and CI < 0.6 to IC50)

COc1cccc2c1C(=O)c1c(O)c3c(c(O)c1C2=O)C[C@@](O)(C(=O)CO)C[C@@H]3O[C@H]1C[C@H](N)[C@H](O)[C@H](C)O1 [Doxorubicin, doxorubicin hydrochloride]
Potentiating activity PC-3 (PC-3 (prostate cancer)): (4) (Weak: 0.8 < CI < 1 to IC50)
Potentiating activity MCF-7 (MCF-7 (breast cancer)): (1) (Very High: CI equal or below 1 at IC20 and Cl below 0.6 to IC50)
Potentiating activity MDA [1]: (3) (Moderate: 0.5 < CI < 0.8 at IC50)
Potentiating activity A-549 (A-549 (lung cancer)): (2) (High: CI below 0.5 at IC50)
Potentiating activity PA-1 (PA-1 (ovary cancer)): (1) (Very High: potentiating or additive activity to IC20 and CI < 0.6 to IC50)
Potentiating activity DLD-1 (DLD-1 (colon cancer)): (4) (Weak: 0.8 < CI < 1 at IC50)
Potentiating activity U-251 [2]: (1) (Very High: potentiating or additive activity to IC20 and CI < 0.6 to IC50)
Potentiating activity GL-261 [3]: (3) (Moderate: 0.5 < CI < 0.8 to IC50)
Potentiating activity B16 (B16 (murine melanoma)): (1) (Very High: potentiating or additive activity to IC20 and CI < 0.6 to IC50)
Potentiating activity MEL-2 (MEL-2 (human melanoma)): (1) (Very High: potentiating or additive activity to IC20 and CI < 0.6 to IC50)

CC/C(=C(\c1ccccc1)c1ccc(OCCN(C)C)cc1)c1ccccc1 [Tamoxifen, tamoxifen citrate]
Potentiating activity PC-3 (PC-3 (prostate cancer)): (2) (High: CI < 0.5 to IC50)
Potentiating activity MCF-7 (MCF-7 (breast cancer)): (6) (Antagonist effect: CI > 1)
Potentiating activity MDA [1]: (5) (Additive effect: CI = 1)
Potentiating activity A-549 (A-549 (lung cancer)): (3) (Moderate: 0.5 < CI < 0.8 at IC50)
Potentiating activity PA-1 (PA-1 (ovary cancer)): (2) (High: CI < 0.5 to IC50)
Potentiating activity DLD-1 (DLD-1 (colon cancer)): (2) (High: CI below 0.5 at IC50)
Potentiating activity U-251 [2]: (1) (Very High: potentiating or additive activity to IC20 and CI < 0.6 to IC50)
Potentiating activity GL-261 [3]: (2) (High: CI < 0.5 to IC50)
Potentiating activity B16 (B16 (murine melanoma)): (3) (Moderate: 0.5 < CI < 0.8 to IC50)
Potentiating activity MEL-2 (MEL-2 (human melanoma)): (1) (Very High: potentiating or additive activity to IC20 and CI < 0.6 to IC50)

CN(C)/N=N/c1[nH]cnc1C(N)=O [Dacarbazine, dacarbazine]
Potentiating activity PC-3 (PC-3 (prostate cancer)): (4) (Weak: 0.8 < CI < 1 to IC50)
Potentiating activity MCF-7 (MCF-7 (breast cancer)): (1) (Very High: CI equal or below 1 at IC20 and Cl below 0.6 to IC50)
Potentiating activity MDA [1]: (1) (Very High: CI equal or below 1 at IC20 and Cl below 0.6 to IC50)
Potentiating activity A-549 (A-549 (lung cancer)): (2) (High: CI below 0.5 at IC50)
Potentiating activity PA-1 (PA-1 (ovary cancer)): (1) (Very High: potentiating or additive activity to IC20 and CI < 0.6 to IC50)
Potentiating activity DLD-1 (DLD-1 (colon cancer)): (3) (Moderate: 0.5 < CI < 0.8 at IC50)
Potentiating activity U-251 [2]: (1) (Very High: potentiating or additive activity to IC20 and CI < 0.6 to IC50)
Potentiating activity GL-261 [3]: (2) (High: CI < 0.5 to IC50)
Potentiating activity B16 (B16 (murine melanoma)): (1) (Very High: potentiating or additive activity to IC20 and CI < 0.6 to IC50)
Potentiating activity MEL-2 (MEL-2 (human melanoma)): (1) (Very High: potentiating or additive activity to IC20 and CI < 0.6 to IC50)

O=C1c2c(O)ccc(O)c2C(=O)c2c(NCCNCCO)ccc(NCCNCCO)c21 [Mitoxantrone]
Potentiating activity PC-3 (PC-3 (prostate cancer)): (5) (Additive effect: CI = 1)
Potentiating activity MCF-7 (MCF-7 (breast cancer)): (1) (Very High: CI equal or below 1 at IC20 and Cl below 0.6 to IC50)
Potentiating activity MDA [1]: (3) (Moderate: 0.5 < CI < 0.8 at IC50)
Potentiating activity A-549 (A-549 (lung cancer)): (5) (Additive effect: CI = 1)
Potentiating activity PA-1 (PA-1 (ovary cancer)): (2) (High: CI < 0.5 to IC50)
Potentiating activity DLD-1 (DLD-1 (colon cancer)): (5) (Additive effect: CI = 1)
Potentiating activity U-251 [2]: (4) (Weak: 0.8 < CI < 1 to IC50)
Potentiating activity GL-261 [3]: (1) (Very High: potentiating or additive activity to IC20 and CI < 0.6 to IC50)
Potentiating activity B16 (B16 (murine melanoma)): (3) (Moderate: 0.5 < CI < 0.8 to IC50)
Potentiating activity MEL-2 (MEL-2 (human melanoma)): (3) (Moderate: 0.5 < CI < 0.8 to IC50)

O=NN(CCCl)C(=O)NCCCl [Carmustine, carmustine]
Potentiating activity PC-3 (PC-3 (prostate cancer)): (1) (Very High: potentiating or additive activity to IC20 and CI < 0.6 to IC50)
Potentiating activity MCF-7 (MCF-7 (breast cancer)): (1) (Very High: CI equal or below 1 at IC20 and Cl below 0.6 to IC50)
Potentiating activity MDA [1]: (3) (Moderate: 0.5 < CI < 0.8 at IC50)
Potentiating activity A-549 (A-549 (lung cancer)): (1) (Very High: CI equal or below 1 at IC20 and Cl below 0.6 to IC50)
Potentiating activity PA-1 (PA-1 (ovary cancer)): (1) (Very High: potentiating or additive activity to IC20 and CI < 0.6 to IC50)
Potentiating activity DLD-1 (DLD-1 (colon cancer)): (2) (High: CI below 0.5 at IC50)
Potentiating activity U-251 [2]: (1) (Very High: potentiating or additive activity to IC20 and CI < 0.6 to IC50)
Potentiating activity GL-261 [3]: (1) (Very High: potentiating or additive activity to IC20 and CI < 0.6 to IC50)
Potentiating activity B16 (B16 (murine melanoma)): (1) (Very High: potentiating or additive activity to IC20 and CI < 0.6 to IC50)
Potentiating activity MEL-2 (MEL-2 (human melanoma)): (1) (Very High: potentiating or additive activity to IC20 and CI < 0.6 to IC50)

N.N.[Cl][Pt][Cl] [Cisplatine, Cisplatin]
Potentiating activity PC-3 (PC-3 (prostate cancer)): (6) (Antagonist effect: CI > 1)
Potentiating activity MCF-7 (MCF-7 (breast cancer)): (2) (High: CI below 0.5 at IC50)
Potentiating activity MDA [1]: (3) (Moderate: 0.5 < CI < 0.8 at IC50)
Potentiating activity A-549 (A-549 (lung cancer)): (2) (High: CI below 0.5 at IC50)
Potentiating activity PA-1 (PA-1 (ovary cancer)): (2) (High: CI < 0.5 to IC50)
Potentiating activity DLD-1 (DLD-1 (colon cancer)): (1) (Very High: CI equal or below 1 at IC20 and Cl below 0.6 to IC50)
Potentiating activity U-251 [2]: (6) (Antagonist effect: CI > 1)
Potentiating activity GL-261 [3]: (6) (Antagonist effect: CI > 1)
Potentiating activity B16 (B16 (murine melanoma)): (1) (Very High: potentiating or additive activity to IC20 and CI < 0.6 to IC50)
Potentiating activity MEL-2 (MEL-2 (human melanoma)): (1) (Very High: potentiating or additive activity to IC20 and CI < 0.6 to IC50)

vincristine sulfate salt
Potentiating activity PC-3 (PC-3 (prostate cancer)): (1) (Very High: potentiating or additive activity to IC20 and CI < 0.6 to IC50)
Potentiating activity MCF-7 (MCF-7 (breast cancer)): (1) (Very High: CI equal or below 1 at IC20 and Cl below 0.6 to IC50)
Potentiating activity MDA [1]: (3) (Moderate: 0.5 < CI < 0.8 at IC50)
Potentiating activity A-549 (A-549 (lung cancer)): (2) (High: CI below 0.5 at IC50)
Potentiating activity PA-1 (PA-1 (ovary cancer)): (1) (Very High: potentiating or additive activity to IC20 and CI < 0.6 to IC50)
Potentiating activity DLD-1 (DLD-1 (colon cancer)): (1) (Very High: CI equal or below 1 at IC20 and Cl below 0.6 to IC50)
Potentiating activity U-251 [2]: (1) (Very High: potentiating or additive activity to IC20 and CI < 0.6 to IC50)
Potentiating activity GL-261 [3]: (1) (Very High: potentiating or additive activity to IC20 and CI < 0.6 to IC50)
Potentiating activity B16 (B16 (murine melanoma)): (1) (Very High: potentiating or additive activity to IC20 and CI < 0.6 to IC50)
Potentiating activity MEL-2 (MEL-2 (human melanoma)): (1) (Very High: potentiating or additive activity to IC20 and CI < 0.6 to IC50)
